≈ marks a conversion by molar mass, not a printed value. One block for each compound: values may come before it. Positions of bridges follow the written chain, without caps; N, C: chain ends. Non-standard residues stand in square brackets, D forms with d. Residues, ends and D or L forms follow the SMILES beside them. *: point of attachment. Lauroyl = CCCCCCCCCCCC(=O)*; Pip = O=C(O)[C@@H]1CCCCN1; Dap = NC[C@H](N)C(=O)O
What was measured:
Assay type in all cases: functional
[1] = test system: Staphylococcus aureus; experiment: Antimicrobial activity against vancomycin-intermediate Staphylococcus aureus CDC HIP 5836 by broth microdilution method
[2] = test system: Enterococcus faecalis; experiment: Antimicrobial activity against vancomycin-sensitive Enterococcus faecalis ATCC 29212 by broth microdilution method
[3] = test system: Staphylococcus epidermidis; experiment: Antimicrobial activity against methicillin-resistant Staphylococcus epidermidis ATCC 51625 by broth microdilution method
[4] = test system: Enterococcus faecium; experiment: Antimicrobial activity against vancomycin/multidrug-resistant Enterococcus faecium ATCC 51559 by broth microdilution method
[5] = test system: Staphylococcus aureus; experiment: Antimicrobial activity against methicillin-sensitive Staphylococcus aureus Smith ATCC 19636 by tube dilution method
[6] = test system: Staphylococcus aureus; experiment: Antimicrobial activity against methicillin-sensitive Staphylococcus aureus Smith ATCC 19636 by broth microdilution method
[7] = test system: Staphylococcus aureus; experiment: Antimicrobial activity against methicillin-resistant Staphylococcus aureus ATCC 43300 by broth microdilution method
[8] = Staphylococcus aureus, Smith, read-out: MIC

SMILES: CCCCCCCCCCCCCCCCS(=O)(=O)N[C@@H](Cc1ccccc1)C(=O)N[C@@H](CC(=O)O)C(=O)N[C@H]1CNC(=O)[C@@H]2CCCN2C(=O)[C@H]([C@H](C)CC)NC(=O)[C@H]([C@@H](C)O)NC(=O)CNC(=O)[C@H](CC(=O)O)NC(=O)CNC(=O)[C@H](CC(=O)O)NC(=O)CNC(=O)[C@@H]2CCCCN2C1=O
MIC [1]: > 64 µg/mL | MIC [2]: 2 µg/mL (≈ 1.37 µM) | MIC [3]: 4 µg/mL (≈ 2.74 µM) | MIC [4]: 4 µg/mL (≈ 2.74 µM) | MIC [5, 8]: 4 µg/mL (≈ 2.74 µM) | MIC [6]: > 64 µg/mL | MIC [7]: 8 µg/mL (≈ 5.48 µM)

SMILES: CCCCCCCCCCCCCCC(=O)N[C@@H](Cc1ccccc1)C(=O)N[C@@H](CC(=O)O)C(=O)N[C@H]1CNC(=O)[C@@H]2CCCN2C(=O)[C@H]([C@H](C)CC)NC(=O)[C@H]([C@@H](C)O)NC(=O)CNC(=O)[C@H](CC(=O)O)NC(=O)CNC(=O)C(CC(=O)O)NC(=O)CNC(=O)[C@@H]2CCCCN2C1=O (single isomer, unassigned)
MIC [1]: 32 µg/mL (≈ 22.9 µM) | MIC [2]: 4 µg/mL (≈ 2.86 µM) | MIC [3]: 4 µg/mL (≈ 2.86 µM) | MIC [4]: 8 µg/mL (≈ 5.73 µM) | MIC [5, 8]: 4 µg/mL (≈ 2.86 µM) | MIC [6]: 4 µg/mL (≈ 2.86 µM) | MIC [7]: 4 µg/mL (≈ 2.86 µM)

SMILES: CCCCCCCCCCCCS(=O)(=O)N[C@@H](CC(N)=O)C(=O)N[C@H]1CNC(=O)[C@@H]2CCCN2C(=O)[C@H]([C@H](C)CC)NC(=O)[C@H]([C@@H](C)O)NC(=O)CNC(=O)[C@H](CC(=O)O)NC(=O)CNC(=O)[C@H](CC(=O)O)NC(=O)CNC(=O)[C@@H]2CCCCN2C1=O
MIC [5, 8]: 16 µg/mL (≈ 12.7 µM)

SMILES: CCCCCCCCCCCCCCNC(=O)N[C@@H](Cc1ccccc1)C(=O)N[C@@H](CC(N)=O)C(=O)N[C@H]1CNC(=O)[C@@H]2CCCN2C(=O)[C@H]([C@H](C)CC)NC(=O)[C@H]([C@@H](C)O)NC(=O)CNC(=O)[C@H](CC(=O)O)NC(=O)CNC(=O)[C@H](CC(=O)O)NC(=O)CNC(=O)[C@@H]2CCCCN2C1=O
MIC [1]: 8 µg/mL (≈ 5.67 µM) | MIC [2]: 2 µg/mL (≈ 1.42 µM) | MIC [3]: 4 µg/mL (≈ 2.84 µM) | MIC [4]: 8 µg/mL (≈ 5.67 µM) | MIC [5, 8]: 4 µg/mL (≈ 2.84 µM) | MIC [6]: 4 µg/mL (≈ 2.84 µM) | MIC [7]: 4 µg/mL (≈ 2.84 µM)

SMILES: CCCCCCCCCC(=O)N[C@@H](CC(=O)O)C(=O)N[C@H]1CNC(=O)[C@@H]2CCCN2C(=O)[C@H]([C@H](C)CC)NC(=O)[C@H]([C@@H](C)O)NC(=O)CNC(=O)[C@H](CC(=O)O)NC(=O)CNC(=O)C(CC(=O)O)NC(=O)CNC(=O)[C@@H]2CCCCN2C1=O (single isomer, unassigned)
MIC [5, 8]: > 64 µg/mL

SMILES: CCCCCCCCCCCCCCC(=O)N[C@@H](CC(=O)O)C(=O)N[C@H]1CNC(=O)[C@@H]2CCCN2C(=O)[C@H]([C@H](C)CC)NC(=O)[C@H]([C@@H](C)O)NC(=O)CNC(=O)[C@H](CC(=O)O)NC(=O)CNC(=O)C(CC(=O)O)NC(=O)CNC(=O)[C@@H]2CCCCN2C1=O (single isomer, unassigned)
MIC [1]: 16 µg/mL (≈ 12.8 µM) | MIC [2]: 4 µg/mL (≈ 3.2 µM) | MIC [3]: 8 µg/mL (≈ 6.4 µM) | MIC [4]: 4 µg/mL (≈ 3.2 µM) | MIC [5]: 2 µg/mL (≈ 1.6 µM) | MIC [6]: 4 µg/mL (≈ 3.2 µM) | MIC [7]: 4 µg/mL (≈ 3.2 µM)

SMILES: CCCCCCCCCCCCCCC(=O)N[C@H](Cc1ccccc1)C(=O)N[C@@H](CC(=O)O)C(=O)N[C@H]1CNC(=O)[C@@H]2CCCN2C(=O)[C@H]([C@H](C)CC)NC(=O)[C@H]([C@@H](C)O)NC(=O)CNC(=O)[C@H](CC(=O)O)NC(=O)CNC(=O)C(CC(=O)O)NC(=O)CNC(=O)[C@@H]2CCCCN2C1=O (single isomer, unassigned)
MIC [5, 8]: 4 µg/mL (≈ 2.86 µM)

SMILES: CC[C@@H](C)[C@@H]1NC(=O)[C@H]([C@@H](C)O)NC(=O)CNC(=O)[C@H](CC(=O)O)NC(=O)CNC(=O)C(CC(=O)O)NC(=O)CNC(=O)[C@@H]2CCCCN2C(=O)[C@@H](NC(=O)[C@H](CC(=O)O)NC(=O)CCCCCCCCCCOc2ccccc2)CNC(=O)[C@@H]2CCCN2C1=O (single isomer, unassigned)
MIC [5, 8]: > 64 µg/mL

SMILES: CCCCCCCCCCCCCCC(=O)N[C@@H](CCCCN)C(=O)N[C@@H](CC(=O)O)C(=O)N[C@H]1CNC(=O)[C@@H]2CCCN2C(=O)[C@H]([C@H](C)CC)NC(=O)[C@H]([C@@H](C)O)NC(=O)CNC(=O)[C@H](CC(=O)O)NC(=O)CNC(=O)C(CC(=O)O)NC(=O)CNC(=O)[C@@H]2CCCCN2C1=O (single isomer, unassigned)
MIC [5, 8]: 16 µg/mL (≈ 11.6 µM)

SMILES: CCCCCCCCCCCCc1ccc(C(=O)N[C@@H](CC(=O)O)C(=O)N[C@H]2CNC(=O)[C@@H]3CCCN3C(=O)[C@H]([C@H](C)CC)NC(=O)[C@H]([C@@H](C)O)NC(=O)CNC(=O)[C@H](CC(=O)O)NC(=O)CNC(=O)C(CC(=O)O)NC(=O)CNC(=O)[C@@H]3CCCCN3C2=O)cc1 (single isomer, unassigned)
MIC [5, 8]: 2 µg/mL (≈ 1.54 µM)

Other lines, results leading:

MIC [5, 8]: 8 µg/mL (≈ 5.74 µM)
SMILES: CCCCCCCCCCCC(=O)N[C@@H](Cc1c[nH]c2ccccc12)C(=O)N[C@@H](CC(N)=O)C(=O)N[C@H]1CNC(=O)[C@@H]2CCCN2C(=O)[C@H]([C@@H](C)CC)NC(=O)[C@H]([C@@H](C)O)NC(=O)CNC(=O)[C@H](CC(=O)O)NC(=O)CNC(=O)[C@H](CC(=O)O)NC(=O)CNC(=O)[C@@H]2CCCCN2C1=O (Lauroyl-WN[Dap][Pip]GDGDGTIP; lactam 3-C)

MIC [5, 8]: > 64 µg/mL
SMILES: CCCCCCCCCC(=O)N[C@@H](Cc1c[nH]c2ccccc12)C(=O)N[C@@H](CC(=O)O)C(=O)N[C@H]1CNC(=O)[C@@H]2CCCN2C(=O)[C@H]([C@H](C)CC)NC(=O)[C@H]([C@@H](C)O)NC(=O)CNC(=O)[C@H](CC(=O)O)NC(=O)CNC(=O)[C@H](CC(=O)O)NC(=O)CNC(=O)[C@@H]2CCCCN2C1=O

MIC [5, 8]: 4 µg/mL (≈ 2.67 µM)
SMILES: CCCCCCCCCCCCCCCCS(=O)(=O)N[C@@H](Cc1c[nH]c2ccccc12)C(=O)N[C@@H](CC(=O)O)C(=O)N[C@H]1CNC(=O)[C@@H]2CCCN2C(=O)[C@H]([C@H](C)CC)NC(=O)[C@H]([C@@H](C)O)NC(=O)CNC(=O)[C@H](CC(=O)O)NC(=O)CNC(=O)[C@H](CC(=O)O)NC(=O)CNC(=O)[C@@H]2CCCCN2C1=O

MIC [5, 8]: > 64 µg/mL
SMILES: CCCCCCCCCCCCCCC(=O)N[C@@H](Cc1c[nH]c2ccccc12)C(=O)N[C@H](CC(=O)O)C(=O)N[C@H]1CNC(=O)[C@@H]2CCCN2C(=O)[C@H]([C@H](C)CC)NC(=O)[C@H]([C@@H](C)O)NC(=O)CNC(=O)[C@H](CC(=O)O)NC(=O)CNC(=O)C(CC(=O)O)NC(=O)CNC(=O)[C@@H]2CCCCN2C1=O (single isomer, unassigned)

MIC [5, 8]: 8 µg/mL (≈ 5.57 µM)
SMILES: CCCCCCCCCCCCCCC(=O)N[C@@H](Cc1c[nH]c2ccccc12)C(=O)N[C@@H](CC(=O)O)C(=O)N[C@H]1CNC(=O)[C@@H]2CCCN2C(=O)[C@H]([C@H](C)CC)NC(=O)[C@H]([C@@H](C)O)NC(=O)CNC(=O)[C@H](CC(=O)O)NC(=O)CNC(=O)C(CC(=O)O)NC(=O)CNC(=O)[C@@H]2CCCCN2C1=O (single isomer, unassigned)
